Assay results taken from the NIST ThermoML archive (doi:10.1016/j.fluid.2008.09.010).
± gives the expanded uncertainty stated by the source.

Settings: Liquid; Ebulliometric method (Recirculating still)

Normal boiling temperature	SMILES
118 ± 0.2 °C	CC(=O)O [acetic acid]
152.6 ± 0.2 °C	CN(C)C=O [dimethylformamide]
188.77 ± 0.2 °C	C[S+](C)[O-] [dimethyl sulfoxide]
